Results from patent US11571411B2, “Use of a bisamide derivative of malonic acid for treating allergic and other diseases in humans and animals” (PHARMENTERPRISES ALLERGY LLC, priority 2018, dated 2023).

System: histamine-induced nasal congestion model
Assay: Histamine-induced nasal congestion model in dogs, oral administration
Format: in vivo, Beagle dogs
Experimental: A histamine-induced nasal congestion model in dogs was performed according to the standard procedure [Tiniakov R. L., Tiniakova O. P., McLeod R. L., Hey J. A., Yeates D. B. Canine model of nasal congestion and allergic rhinitis//J Appl Physiol. 2003. V.94(5). P.1821-1828]. Beagle dogs were injected in the nasal cavity with a 5% histamine solution in a volume of 250 μl/nostril. The volume of the nasal cavity of the right and left nostrils was measured using a rhinometer before and 5, 10, 15, 20, 30, 40, 50 and 60 minutes after administration of histamine. Three experiments were performed, in which Compound I was administered orally once at different times: 1) 30 minutes before administration of histamine; 2) 1 hour before administration of histamine; and 3) 6 hours before administration of histamine, and one experiment was performed, in which Compound I was administered orally once daily for 14 days, the last administration was carried out 1 hour before administration of histamine.

[1] = oral 1 hour before histamine, 0.005 mg/kg, 5 minutes after histamine
[2] = oral 1 hour before histamine, 0.005 mg/kg, 10 minutes after histamine
[3] = oral 1 hour before histamine, 0.005 mg/kg, 15 minutes after histamine
[4] = oral 1 hour before histamine, 0.005 mg/kg, 20 minutes after histamine
[5] = oral 1 hour before histamine, 0.005 mg/kg, 30 minutes after histamine
[6] = oral 1 hour before histamine, 0.005 mg/kg, 40 minutes after histamine
[7] = oral 1 hour before histamine, 0.005 mg/kg, 50 minutes after histamine
[8] = oral 1 hour before histamine, 0.005 mg/kg, 60 minutes after histamine
[9] = oral 1 hour before histamine, 0.005 mg/kg, before histamine administration
[10] = oral 1 hour before histamine, 0.05 mg/kg, 5 minutes after histamine
[11] = oral 1 hour before histamine, 0.05 mg/kg, 10 minutes after histamine
[12] = oral 1 hour before histamine, 0.05 mg/kg, 15 minutes after histamine
[13] = oral 1 hour before histamine, 0.05 mg/kg, 20 minutes after histamine
[14] = oral 1 hour before histamine, 0.05 mg/kg, 30 minutes after histamine
[15] = oral 1 hour before histamine, 0.05 mg/kg, 40 minutes after histamine
[16] = oral 1 hour before histamine, 0.05 mg/kg, 50 minutes after histamine
[17] = oral 1 hour before histamine, 0.05 mg/kg, 60 minutes after histamine
[18] = oral 1 hour before histamine, 0.05 mg/kg, before histamine administration
[19] = oral 1 hour before histamine, 0.54 mg/kg, 5 minutes after histamine
[20] = oral 1 hour before histamine, 0.54 mg/kg, 10 minutes after histamine
[21] = oral 1 hour before histamine, 0.54 mg/kg, 15 minutes after histamine
[22] = oral 1 hour before histamine, 0.54 mg/kg, 20 minutes after histamine
[23] = oral 1 hour before histamine, 0.54 mg/kg, 30 minutes after histamine
[24] = oral 1 hour before histamine, 0.54 mg/kg, 40 minutes after histamine
[25] = oral 1 hour before histamine, 0.54 mg/kg, 50 minutes after histamine
[26] = oral 1 hour before histamine, 0.54 mg/kg, 60 minutes after histamine
[27] = oral 1 hour before histamine, 0.54 mg/kg, before histamine administration
[28] = oral 6 hours before histamine, 0.005 mg/kg, 5 minutes after histamine
[29] = oral 6 hours before histamine, 0.005 mg/kg, 10 minutes after histamine
[30] = oral 6 hours before histamine, 0.005 mg/kg, 15 minutes after histamine
[31] = oral 6 hours before histamine, 0.005 mg/kg, 20 minutes after histamine
[32] = oral 6 hours before histamine, 0.005 mg/kg, 30 minutes after histamine
[33] = oral 6 hours before histamine, 0.005 mg/kg, 40 minutes after histamine
[34] = oral 6 hours before histamine, 0.005 mg/kg, 50 minutes after histamine
[35] = oral 6 hours before histamine, 0.005 mg/kg, 60 minutes after histamine
[36] = oral 6 hours before histamine, 0.005 mg/kg, before histamine administration
[37] = oral 6 hours before histamine, 0.05 mg/kg, 5 minutes after histamine
[38] = oral 6 hours before histamine, 0.05 mg/kg, 10 minutes after histamine
[39] = oral 6 hours before histamine, 0.05 mg/kg, 15 minutes after histamine
[40] = oral 6 hours before histamine, 0.05 mg/kg, 20 minutes after histamine
[41] = oral 6 hours before histamine, 0.05 mg/kg, 30 minutes after histamine
[42] = oral 6 hours before histamine, 0.05 mg/kg, 40 minutes after histamine
[43] = oral 6 hours before histamine, 0.05 mg/kg, 50 minutes after histamine
[44] = oral 6 hours before histamine, 0.05 mg/kg, 60 minutes after histamine
[45] = oral 6 hours before histamine, 0.05 mg/kg, before histamine administration
[46] = oral 6 hours before histamine, 0.54 mg/kg, 5 minutes after histamine
[47] = oral 6 hours before histamine, 0.54 mg/kg, 10 minutes after histamine
[48] = oral 6 hours before histamine, 0.54 mg/kg, 15 minutes after histamine
[49] = oral 6 hours before histamine, 0.54 mg/kg, 20 minutes after histamine
[50] = oral 6 hours before histamine, 0.54 mg/kg, 30 minutes after histamine

O=C(CC(=O)NCCc1cnc[nH]1)NCCc1cnc[nH]1 [Compound I, N,N′-bis(2-(1H-imidazol-5-yl)ethyl)malonamide]
onset of the therapeutic effect (after a single oral administration, dogs): ≤ 30 min | Volume of the nasal cavity, left nostril [1]: 3.1 ± 0.2$ cm^3 | Volume of the nasal cavity, right nostril [1]: 3.1 ± 0.5$ cm^3 | Volume of the nasal cavity, left nostril [2]: 2.4 ± 0.4$ cm^3 | Volume of the nasal cavity, right nostril [2]: 2.1 ± 0.1$ cm^3 | Volume of the nasal cavity, left nostril [3]: 2.2 ± 0.2$ cm^3 | Volume of the nasal cavity, right nostril [3]: 2.8 ± 0.5$ cm^3 | Volume of the nasal cavity, left nostril [4]: 2.3 ± 0.14$ cm^3 | Volume of the nasal cavity, right nostril [4]: 2.6 ± 0.4$ cm^3 | Volume of the nasal cavity, left nostril [5]: 2.0 ± 0.2$ cm^3 | Volume of the nasal cavity, right nostril [5]: 3.0 ± 0.5$ cm^3 | Volume of the nasal cavity, left nostril [6]: 3.6 ± 0.2 cm^3 | Volume of the nasal cavity, right nostril [6]: 3.4 ± 0.2$ cm^3 | Volume of the nasal cavity, left nostril [7]: 3.3 ± 0.2$ cm^3 | Volume of the nasal cavity, right nostril [7]: 3.7 ± 0.24$ cm^3 | Volume of the nasal cavity, left nostril [8]: 3.4 ± 0.1$ cm^3 | Volume of the nasal cavity, right nostril [8]: 3.5 ± 0.2$ cm^3 | Volume of the nasal cavity, left nostril [9]: 3.9 ± 0.2 cm^3 | Volume of the nasal cavity, right nostril [9]: 4.3 ± 0.2 cm^3 | Volume of the nasal cavity, left nostril [10]: 2.8 ± 0.1$ cm^3 | Volume of the nasal cavity, right nostril [10]: 2.8 ± 0.3$ cm^3 | Volume of the nasal cavity, left nostril [11]: 3.1 ± 0.24$ cm^3 | Volume of the nasal cavity, right nostril [11]: 3.5 ± 0.24$ cm^3 | Volume of the nasal cavity, left nostril [12]: 3.1 ± 0.14$ cm^3 | Volume of the nasal cavity, right nostril [12]: 2.6 ± 0.2$ cm^3 | Volume of the nasal cavity, left nostril [13]: 2.5 ± 0.14$ cm^3 | Volume of the nasal cavity, right nostril [13]: 2.5 ± 0.14$ cm^3 | Volume of the nasal cavity, left nostril [14]: 3.6 ± 0.24 cm^3 | Volume of the nasal cavity, right nostril [14]: 3.5 ± 0.24 cm^3 | Volume of the nasal cavity, left nostril [15]: 3.7 ± 0.34 cm^3 | Volume of the nasal cavity, right nostril [15]: 3.7 ± 0.24 cm^3 | Volume of the nasal cavity, left nostril [16]: 3.2 ± 0.1$ cm^3 | Volume of the nasal cavity, right nostril [16]: 3.2 ± 0.1$ cm^3 | Volume of the nasal cavity, left nostril [17]: 3.2 ± 0.1$ cm^3 | Volume of the nasal cavity, right nostril [17]: 3.5 ± 0.1$ cm^3 | Volume of the nasal cavity, left nostril [18]: 4.0 ± 0.3 cm^3 | Volume of the nasal cavity, right nostril [18]: 4.2 ± 0.2 cm^3 | Volume of the nasal cavity, left nostril [19]: 2.6 ± 0.1$ cm^3 | Volume of the nasal cavity, right nostril [19]: 3.0 ± 0.4$ cm^3 | Volume of the nasal cavity, left nostril [20]: 3.4 ± 0.14$ cm^3 | Volume of the nasal cavity, right nostril [20]: 3.0 ± 0.24$ cm^3 | Volume of the nasal cavity, left nostril [21]: 2.5 ± 0.2$ cm^3 | Volume of the nasal cavity, right nostril [21]: 3.0 ± 0.24$ cm^3 | Volume of the nasal cavity, left nostril [22]: 2.5 ± 0.24$ cm^3 | Volume of the nasal cavity, right nostril [22]: 2.8 ± 0.34$ cm^3 | Volume of the nasal cavity, left nostril [23]: 3.8 ± 0.24 cm^3 | Volume of the nasal cavity, right nostril [23]: 3.6 ± 0.24$ cm^3 | Volume of the nasal cavity, left nostril [24]: 3.6 ± 0.14$ cm^3 | Volume of the nasal cavity, right nostril [24]: 3.6 ± 0.24$ cm^3 | Volume of the nasal cavity, left nostril [25]: 3.3 ± 0.3$ cm^3 | Volume of the nasal cavity, right nostril [25]: 3.4 ± 0.1$ cm^3 | Volume of the nasal cavity, left nostril [26]: 3.3 ± 0.2$ cm^3 | Volume of the nasal cavity, right nostril [26]: 3.2 ± 0.2$ cm^3 | Volume of the nasal cavity, left nostril [27]: 4.1 ± 0.1 cm^3 | Volume of the nasal cavity, right nostril [27]: 4.4 ± 0.1 cm^3 | Volume of the nasal cavity, left nostril [28]: 2.0 ± 0.3$ cm^3 | Volume of the nasal cavity, right nostril [28]: 2.1 ± 0.3$ cm^3 | Volume of the nasal cavity, left nostril [29]: 1.9 ± 0.1$ cm^3 | Volume of the nasal cavity, right nostril [29]: 2.0 ± 0.1$ cm^3 | Volume of the nasal cavity, left nostril [30]: 2.4 ± 0.24$ cm^3 | Volume of the nasal cavity, right nostril [30]: 2.4 ± 0.14$ cm^3 | Volume of the nasal cavity, left nostril [31]: 3.2 ± 0.24$ cm^3 | Volume of the nasal cavity, right nostril [31]: 3.2 ± 0.24$ cm^3 | Volume of the nasal cavity, left nostril [32]: 3.3 ± 0.14$ cm^3 | Volume of the nasal cavity, right nostril [32]: 3.4 ± 0.14$ cm^3 | Volume of the nasal cavity, left nostril [33]: 3.3 ± 0.2$ cm^3 | Volume of the nasal cavity, right nostril [33]: 3.4 ± 0.1$ cm^3 | Volume of the nasal cavity, left nostril [34]: 3.4 ± 0.1$ cm^3 | Volume of the nasal cavity, right nostril [34]: 3.5 ± 0.2$ cm^3 | Volume of the nasal cavity, left nostril [35]: 3.6 ± 0.2$ cm^3 | Volume of the nasal cavity, right nostril [35]: 3.4 ± 0.2$ cm^3 | Volume of the nasal cavity, left nostril [36]: 4.4 ± 0.1 cm^3 | Volume of the nasal cavity, right nostril [36]: 4.4 ± 0.2 cm^3 | Volume of the nasal cavity, left nostril [37]: 2.2 ± 0.1$ cm^3 | Volume of the nasal cavity, right nostril [37]: 2.2 ± 0.2$ cm^3 | Volume of the nasal cavity, left nostril [38]: 2.4 ± 0.2$ cm^3 | Volume of the nasal cavity, right nostril [38]: 2.3 ± 0.2$ cm^3 | Volume of the nasal cavity, left nostril [39]: 2.0 ± 0.24$ cm^3 | Volume of the nasal cavity, right nostril [39]: 2.0 ± 0.14$ cm^3 | Volume of the nasal cavity, left nostril [40]: 3.4 ± 0.14$ cm^3 | Volume of the nasal cavity, right nostril [40]: 3.2 ± 0.24$ cm^3 | Volume of the nasal cavity, left nostril [41]: 3.4 ± 0.24$ cm^3 | Volume of the nasal cavity, right nostril [41]: 3.4 ± 0.14$ cm^3 | Volume of the nasal cavity, left nostril [42]: 3.1 ± 0.1$ cm^3 | Volume of the nasal cavity, right nostril [42]: 3.1 ± 0.1$ cm^3 | Volume of the nasal cavity, left nostril [43]: 3.4 ± 0.1$ cm^3 | Volume of the nasal cavity, right nostril [43]: 3.4 ± 0.1$ cm^3 | Volume of the nasal cavity, left nostril [44]: 3.6 ± 0.1$ cm^3 | Volume of the nasal cavity, right nostril [44]: 3.5 ± 0.1$ cm^3 | Volume of the nasal cavity, left nostril [45]: 4.2 ± 0.2 cm^3 | Volume of the nasal cavity, right nostril [45]: 4.1 ± 0.1 cm^3 | Volume of the nasal cavity, left nostril [46]: 2.7 ± 0.2$ cm^3 | Volume of the nasal cavity, right nostril [46]: 2.7 ± 0.3$ cm^3 | Volume of the nasal cavity, left nostril [47]: 2.8 ± 0.24$ cm^3 | Volume of the nasal cavity, right nostril [47]: 2.8 ± 0.24$ cm^3 | Volume of the nasal cavity, left nostril [48]: 2.8 ± 0.14$ cm^3 | Volume of the nasal cavity, right nostril [48]: 2.8 ± 0.24$ cm^3 | Volume of the nasal cavity, left nostril [49]: 3.4 ± 0.14$ cm^3 | Volume of the nasal cavity, right nostril [49]: 3.5 ± 0.14$ cm^3 | Volume of the nasal cavity, left nostril [50]: 3.5 ± 0.24$ cm^3 | Volume of the nasal cavity, right nostril [50]: 3.4 ± 0.14$ cm^3
